Consider 24 compounds from ChEMBL document CHEMBL5576123, “Interaction of Cephalosporins with Human Serum Albumin: A Structural Study” (J Med Chem, 2024).

Values after ≈ are worked out from the molar mass of the structure shown. Active and inactive are the calls of the source. The rule behind the calls is not given here.

Data set [1] is described as follows: Protein binding in plasma (unknown origin). The format is ADME, cell-free. To be noted: read-out: PPB (converted).
Data set [2] has as its system Escherichia coli. As to the kind of experiment: Antibacterial activity against Escherichia coli ATCC 25922 assessed as inhibition of bacterial growth at 0.6 mM incubated for 24 hrs by broth microdilution method. The format is functional, organism-based.
Data set [3] concerns Escherichia coli. Description: Antibacterial activity against Escherichia coli ATCC 25922 assessed as inhibition of bacterial growth incubated for 24 hrs in absence of HSA by broth microdilution method. It counts as functional.
In data set [4] the test system is Escherichia coli. Description: Antibacterial activity against Escherichia coli ATCC 25922 assessed as inhibition of bacterial growth incubated for 24 hrs in presence of HSA by broth microdilution method. It counts as functional.
In data set [5] the test system is Escherichia coli. As to the kind of experiment: Ratio of MIC>90 against Escherichia coli ATCC 25922 in presence of HSA to MIC>90 against Escherichia coli ATCC 25922 in absence of HSA. The format is functional.
The test system of data set [6] is Escherichia coli. Description: Antibacterial activity against Escherichia coli ATCC 25922 assessed as inhibition of bacterial growth at 0 to 8 ug/ml incubated for 24 hrs in presence of HSA by broth microdilution method. The following applies: dose 0-8 µg/ml. The format is functional, organism-based.
Data set [7] has as its target T1, Albumin (Homo sapiens, UniProt P02768). Description: Binding affinity to human serum albumin incubated for 18 hrs by equilibrium dialysis method. The format is ADME. The following applies: isolated protein.
The target in data set [8] is T1, Albumin. As to the kind of experiment: Binding affinity to human serum albumin incubated for 18 hrs in presence of 40 uM bicalutamide by equilibrium dialysis method. The format is ADME. The following applies: isolated protein.
For data set [9], the target named is T1, Albumin. As to the kind of experiment: Binding affinity to human serum albumin incubated for 18 hrs in presence of 80 uM bicalutamide by equilibrium dialysis method. The format is ADME. The following applies: isolated protein.
Data set [10] deals with Escherichia coli. As to the kind of experiment: Antibacterial activity against Escherichia coli ATCC 25922 assessed as inhibition of bacterial growth incubated for 24 hrs in presence of warfarin by broth microdilution method. The format is functional.

T1 sequence (P02768 whole entry): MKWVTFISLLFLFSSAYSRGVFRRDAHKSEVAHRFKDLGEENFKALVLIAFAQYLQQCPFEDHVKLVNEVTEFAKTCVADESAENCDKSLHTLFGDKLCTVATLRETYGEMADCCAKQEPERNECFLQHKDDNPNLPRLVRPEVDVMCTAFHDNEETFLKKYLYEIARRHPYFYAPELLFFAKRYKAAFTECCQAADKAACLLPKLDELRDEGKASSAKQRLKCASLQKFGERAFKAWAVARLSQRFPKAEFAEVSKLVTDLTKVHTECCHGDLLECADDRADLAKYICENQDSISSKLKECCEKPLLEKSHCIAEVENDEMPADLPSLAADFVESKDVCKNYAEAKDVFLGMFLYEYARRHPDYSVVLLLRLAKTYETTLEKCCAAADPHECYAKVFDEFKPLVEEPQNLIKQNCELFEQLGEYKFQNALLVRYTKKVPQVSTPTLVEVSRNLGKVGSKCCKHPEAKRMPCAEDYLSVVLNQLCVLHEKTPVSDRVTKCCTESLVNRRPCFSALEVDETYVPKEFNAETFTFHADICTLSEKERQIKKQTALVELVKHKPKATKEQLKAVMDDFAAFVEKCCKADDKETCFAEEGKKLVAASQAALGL

Turning to `CO/N=C(\C(=O)N[C@@H]1C(=O)N2C(C(=O)[O-])=C(C[N+]3(C)CCCC3)CS[C@H]12)c1csc(N)n1`, the fraction unbound in data set [1] is 0.8.
As to `C=CC1=C(C(=O)O)N2C(=O)[C@@H](NC(=O)/C(=N\O)c3csc(N)n3)[C@H]2SC1`, the fraction unbound in data set [1] was 0.3.
For `CC(O)(CS(=O)(=O)c1ccc(F)cc1)C(=O)Nc1ccc(C#N)c(C(F)(F)F)c1` (centres undefined), in the data set with Escherichia coli [2], the result was inactive.
On the same count and under the same terms, then `CCCCC1C(=O)N(c2ccccc2)N(c2ccccc2)C1=O`, with “inactive”; and `CN1C(=O)CN=C(c2ccccc2)c2cc(Cl)ccc21`, with “inactive”.
Take `N[C@@H](C(=O)N[C@@H]1C(=O)N2C(C(=O)O)=C(Cl)CS[C@H]12)c1ccccc1` [CEFACLOR ANHYDROUS]: the fraction unbound in data set [1] was 0.75.
Same read-out and setting: then `CC1=C(C(=O)O)N2C(=O)[C@@H](NC(=O)[C@H](N)c3ccc(O)cc3)[C@H]2SC1` [CEFADROXIL], with 0.8.
In the case of `Cc1nnc(SCC2=C(C(=O)O)N3C(=O)[C@@H](NC(=O)Cn4cnnn4)[C@H]3SC2)s1` [CEFAZOLIN], the fraction unbound in [1] is 0.2. For the same compound, the MIC90 in the data set with Escherichia coli [3] is 2 mg/L (≈ 4.4 µM); with Escherichia coli [4], 4 mg/L. In addition, the Ratio in the data set on Escherichia coli [5] amounted to 2.
On to `CO/N=C(\C(=O)N[C@@H]1C(=O)N2C(C(=O)O)=C(/C=C\c3scnc3C)CS[C@H]12)c1csc(N)n1` [CEFDITOREN], for which the fraction unbound in data set [1] is 0.12.
On the same count and under the same terms, the same measure for `C=CC1=C(C(=O)O)N2C(=O)[C@@H](NC(=O)/C(=N\OCC(=O)O)c3csc(N)n3)[C@H]2SC1` [CEFIXIME]: 0.35; for `CO/N=C(\C(=O)N[C@@H]1C(=O)N2C(C(=O)O)=C(COC(C)=O)CS[C@H]12)c1csc(N)n1` [CEFOTAXIME]: 0.5.
Regarding `CO[C@@]1(NC(=O)C2SC(=C(C(N)=O)C(=O)O)S2)C(=O)N2C(C(=O)O)=C(CSc3nnnn3C)CS[C@@H]21` (some centres undefined) [CEFOTETAN], in the data set on Escherichia coli [6], the result was inactive. The fraction unbound in data set [1] is 0.12.
In the case of `CO[C@@]1(NC(=O)Cc2cccs2)C(=O)N2C(C(=O)O)=C(COC(N)=O)CS[C@@H]21` [CEFOXITIN], the fraction unbound in [1] was 0.21.
With `CO/N=C(\C(=O)N[C@@H]1C(=O)N2C(C(=O)[O-])=C(C[n+]3cccc4c3CCC4)CS[C@H]12)c1csc(N)n1` [CEFPIROME], in data set [1], the fraction unbound was 0.9.
On the same count and under the same terms, the same measure for `COCC1=C(C(=O)O)N2C(=O)[C@@H](NC(=O)/C(=N\OC)c3csc(N)n3)[C@H]2SC1` [CEFPODOXIME]: 0.17.
On the same count and under the same terms, then `CC=CC1=C(C(=O)O)N2C(=O)[C@@H](NC(=O)[C@H](N)c3ccc(O)cc3)[C@H]2SC1` [CEFPROZIL], with 0.64; and `CCO/N=C(\C(=O)N[C@@H]1C(=O)N2C(C(=O)[O-])=C(Sc3nc(-c4cc[n+](C)cc4)cs3)CS[C@H]12)c1nsc(N)n1` [CEFTAROLINE], with 0.8; and `CC(C)(O/N=C(\C(=O)N[C@@H]1C(=O)N2C(C(=O)[O-])=C(C[n+]3ccccc3)CS[C@H]12)c1csc(N)n1)C(=O)O` [CEFTAZIDIME], with 0.91.
As to `Nc1nc(/C(=C/CC(=O)O)C(=O)N[C@@H]2C(=O)N3C(C(=O)O)=CCS[C@H]23)cs1` [CEFTIBUTEN], in data set [1], the fraction unbound is 0.35.
On the same count and under the same terms, the same measure for `CO/N=C(\C(=O)N[C@@H]1C(=O)N2C(C(=O)O)=CCS[C@H]12)c1csc(N)n1` [CEFTIZOXIME]: 0.7; for `Nc1nc(/C(=N/O)C(=O)N[C@@H]2C(=O)N3C(C(=O)O)=C(/C=C4\CCN([C@@H]5CCNC5)C4=O)CS[C@H]23)ns1` [CEFTOBIPROLE]: 0.84.
Take `Cn1c(N)c(NC(=O)NCCN)c[n+]1CC1=C(C(=O)O)N2C(=O)[C@@H](NC(=O)/C(=N\OC(C)(C)C(=O)[O-])c3nsc(N)n3)[C@H]2SC1` [CEFTOLOZANE]: the fraction unbound in [1] was 0.8.
Consider `CO/N=C(\C(=O)N[C@@H]1C(=O)N2C(C(=O)O)=C(CSc3nc(=O)c(=O)[nH]n3C)CS[C@H]12)c1csc(N)n1` [CEFTRIAXONE], for which the fraction unbound in data set [1] was 0.05. The values for the MIC90 with Escherichia coli [3], in the data set with Escherichia coli [4] and in the data set on Escherichia coli [10] were not above 0.12 mg/L, 1 mg/L and 0.25 mg/L, respectively. Further, the K at Albumin [7] was 8.5 10^4/M; at Albumin [8], 5.01 10^4/M; at Albumin [9], 1.3 10^4/M.
As to `CO/N=C(\C(=O)N[C@@H]1C(=O)N2C(C(=O)O)=C(COC(N)=O)CS[C@H]12)c1ccco1` [CEFUROXIME], the fraction unbound in data set [1] was 0.5.
